target: T1, human glucagon receptor (Homo sapiens, UniProt P47871); assay: Glucagon binding inhibitory activity ([125I]-glucagon binding to glucagon receptor membrane protein); conditions: human glucagon receptor membrane protein, [125I]-glucagon, 90 min room temperature
T1 construct: made in house; host or cells: FreeStyle CHO cells, transient transfection with pMSRαneo/hGCGR; membrane fraction (35,000 rpm pellet)
Procedure, shortened: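 Receptor source was a membrane fraction of transiently transfected CHO cells bearing human receptor; 90 min room-temperature binding, filtration harvest, scintillation counting.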

T1 sequence (P47871 26-477): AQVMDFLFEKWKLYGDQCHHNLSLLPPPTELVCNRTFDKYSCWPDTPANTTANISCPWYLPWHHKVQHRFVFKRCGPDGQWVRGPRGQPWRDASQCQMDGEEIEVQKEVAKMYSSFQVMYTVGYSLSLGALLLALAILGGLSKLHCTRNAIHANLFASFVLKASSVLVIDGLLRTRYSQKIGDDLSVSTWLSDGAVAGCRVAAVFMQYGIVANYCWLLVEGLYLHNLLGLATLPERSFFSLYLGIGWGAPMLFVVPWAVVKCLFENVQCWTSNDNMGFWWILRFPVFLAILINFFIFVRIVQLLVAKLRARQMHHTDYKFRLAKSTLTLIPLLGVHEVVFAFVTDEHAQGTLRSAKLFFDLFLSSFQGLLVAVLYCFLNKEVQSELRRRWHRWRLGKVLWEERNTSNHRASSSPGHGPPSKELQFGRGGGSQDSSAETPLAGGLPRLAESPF

IC50	Structure (SMILES)
410 nM	CC(C)c1nn(-c2ccc(C(F)(F)F)cn2)cc1C(Nc1ccc(C(=O)N(C)CCC(=O)O)cc1)C1CCCCC1 (centres unmarked) [Example 8, 3-[({4-[(cyclohexyl{3-(1-methylethyl)-1-[5-(trifluoromethyl)pyridin-2-yl]-1H-pyrazol-4-yl}methyl)amino]phenyl}carbonyl)(methyl)amino]propanoic acid]

same assay, conditions: test compound 10 μM; 0.4% DMSO = 0%, non-labeled glucagon 1 μM = 100%

inhibitory rate (%) at 10 μM	Structure (SMILES)
85%	Cc1c(C(Nc2ccc(C(=O)N(C)CCC(=O)O)nc2)C2CCCCC2)sc2ccccc12 (centres unmarked) [Example A60, 3-{[(5-{[cyclohexyl(3-methyl-1-benzothiophen-2-yl)methyl]amino}pyridin-2-yl)carbonyl](methyl)amino}propanoic acid]

same assay, conditions: test compound 10 μM; 0.4% DMSO = 0%, non-labeled glucagon 1 μM = 100%; read-out: inhibitory rate (%) at 10 μM

inhibition at 10 µM	Structure (SMILES)
74%	CCc1nn(-c2ccc(C(F)(F)F)cn2)cc1C(Nc1ccc(C(=O)NCCC(=O)O)cc1)C1CCCCC1 (centres unmarked) [Example 3, 3-[({4-[(cyclohexyl{3-ethyl-1-[5-(trifluoromethyl)pyridin-2-yl]-1H-pyrazol-4-yl}methyl)amino]phenyl}carbonyl)amino]propanoic acid]
85%	Cc1c(C(Nc2ccc(C(=O)NCCC(=O)O)cc2)C2CCCCC2)sc2ccncc12 (centres unmarked) [Example A138, 3-{[(4-{[cyclohexyl(3-methylthieno[3,2-c]pyridin-2-yl)methyl]amino}phenyl)carbonyl]amino}propanoic acid]
63%	CN(CCC(=O)O)C(=O)c1ccc(NC(c2cn(-c3ccccc3)nc2CCc2ccccc2)C2CCCCC2)cc1 (centres unmarked) [Example 16, 3-[{[4-({cyclohexyl[1-phenyl-3-(2-phenylethyl)-1H-pyrazol-4-yl]methyl}amino)phenyl]carbonyl}(methyl)amino]propanoic acid]
76%	CCOc1cccc(-n2cc(C(CC(C)C)Nc3ccc(C(=O)NCCC(=O)O)cc3)c(CC)n2)c1 (centres unmarked) [Example 86, 3-({[4-({1-[1-(3-ethoxyphenyl)-3-ethyl-1H-pyrazol-4-yl]-3-methylbutyl}amino)phenyl]carbonyl}amino)propanoic acid]
79%	Cc1c(C(Nc2ccc(C(=O)NCCC(=O)O)cc2)C2CCCCC2)oc2ccc(OCc3ccccc3)cc12 (centres unmarked) [Example A158, 3-({[4-({[5-(benzyloxy)-3-methyl-1-benzofuran-2-yl](cyclohexyl)methyl}amino)phenyl]carbonyl}amino)propanoic acid]
81%	Cc1c(C(Nc2ccc(C(=O)NCCC(=O)O)nc2)C2CCCCC2)sc2ccccc12 (centres unmarked) [Example A62, 3-{[(5-{[cyclohexyl(3-methyl-1-benzothiophen-2-yl)methyl]amino}pyridin-2-yl)carbonyl]amino}propanoic acid]
80%	COc1ccc2oc(C(Nc3ccc(C(=O)N(C)CCC(=O)O)cc3)C3CCCCC3)c(C)c2c1 (centres unmarked) [Example A27, 3-{[(4-{[cyclohexyl(5-methoxy-3-methyl-1-benzofuran-2-yl)methyl]amino}phenyl)carbonyl](methyl)amino}propanoic acid]
54%	CCC(C)(C)n1cc(C(Nc2ccc(C(=O)NCCC(=O)O)cc2)C2CCCCC2)c(C)n1 (centres unmarked) [Example 43, 3-({[4-({cyclohexyl[1-(1,1-dimethylpropyl)-3-methyl-1H-pyrazol-4-yl]methyl}amino)phenyl]carbonyl}amino)propanoic acid]
75%	Cc1c(C(Nc2ccc(C(=O)NCCC(=O)O)cc2)C2CCCCC2)sc2cnccc12 (centres unmarked) [Example A137, 3-{[(4-{[cyclohexyl(3-methylthieno[2,3-c]pyridin-2-yl)methyl]amino}phenyl)carbonyl]amino}propanoic acid]
69%	COCc1nn(-c2ccc(OC)cc2)cc1C(Nc1ccc(C(=O)N(C)CCC(=O)O)cc1)C1CCCCC1 (centres unmarked) [Example 36, 3-[{[4-({cyclohexyl[3-(methoxymethyl)-1-(4-methoxyphenyl)-1H-pyrazol-4-yl]methyl}amino)phenyl]carbonyl}(methyl)amino]propanoic acid]
88%	Cc1cc(COc2ccc3oc(C(Nc4ccc(C(=O)N(C)CCC(=O)O)cc4)C4CCCCC4)c(C)c3c2)no1 (centres unmarked) [Example A194, 3-[({4-[(cyclohexyl{3-methyl-5-[(5-methylisoxazol-3-yl)methoxy]-1-benzofuran-2-yl}methyl)amino]phenyl}carbonyl)(methyl)amino]propanoic acid]
79%	Cc1c(C(Nc2ccc(C(=O)N(C)CCC(=O)O)cc2)C2CCCCC2)oc2cccc(F)c12 (centres unmarked) [Example A162]
70%	Cc1c(C(Nc2ccc(C(=O)N(C)CCC(=O)O)cc2)C(C)C)oc2ccc(Oc3ccc(C(F)(F)F)cn3)cc12 (centres unmarked) [Example A206, 3-{methyl[(4-{[2-methyl-1-(3-methyl-5-{[5-(trifluoromethyl)pyridin-2-yl]oxy}-1-benzofuran-2-yl)propyl]amino}phenyl)carbonyl]amino}propanoic acid]
68%	CCOc1cccc(-n2cc(C(CC(C)C)Nc3ccc(C(=O)N(C)CCC(=O)O)cc3)c(CC)n2)c1 (centres unmarked) [Example 85, 3-[{[4-({1-[1-(3-ethoxyphenyl)-3-ethyl-1H-pyrazol-4-yl]-3-methylbutyl}amino)phenyl]carbonyl}(methyl)amino]propanoic acid]
73%	O=C(O)CCNC(=O)c1ccc(NC(c2nn(-c3ccccc3)c3ccccc23)C2CCCCC2)cc1 (centres unmarked) [Example A14, 3-{[(4-{[cyclohexyl(1-phenyl-1H-indazol-3-yl)methyl]amino}phenyl)carbonyl]amino}propanoic acid]
62%	COc1ccc(-n2cc(C(CC(C)C)Nc3ccc(C(=O)NCCC(=O)O)cc3)c(C(C)C)n2)cc1 (centres unmarked) [Example 54, 3-({[4-({1-[1-(4-methoxyphenyl)-3-(1-methylethyl)-1H-pyrazol-4-yl]-3-methylbutyl}amino)phenyl]carbonyl}amino)propanoic acid]
88%	COc1ncccc1-c1ccc2oc(C(Nc3ccc(C(=O)N(C)CCC(=O)O)cc3)C(C)C)c(C)c2c1 (centres unmarked) [Example A183, 3-[{[4-({1-[5-(2-methoxypyridin-3-yl)-3-methyl-1-benzofuran-2-yl]-2-methylpropyl}amino)phenyl]carbonyl}(methyl)amino]propanoic acid]
77%	Cc1c(C(Nc2ccc(C(=O)N(C)CCC(=O)O)nc2)C2CCCCC2)sc2ccccc12 (centres unmarked) [Example A59, 3-{[(5-{[cyclohexyl(3-methyl-1-benzothiophen-2-yl)methyl]amino}pyridin-2-yl)carbonyl](methyl)amino}propanoic acid]
82%	Cc1c(C(Nc2ccc(C(=O)N(C)CCC(=O)O)cc2)C2CCCCC2)oc2ccc(OCc3ccccc3)cc12 (centres unmarked) [Example A154, 3-[{[4-({[5-(benzyloxy)-3-methyl-1-benzofuran-2-yl](cyclohexyl)methyl}amino)phenyl]carbonyl}(methyl)amino]-propanoic acid]
75%	CC(C)c1nn(-c2ccc(C(F)(F)F)cn2)cc1C(Nc1ccc(C(=O)N(C)CCC(=O)O)cc1)C1CCCCC1 (centres unmarked) [Example 8, 3-[({4-[(cyclohexyl{3-(1-methylethyl)-1-[5-(trifluoromethyl)pyridin-2-yl]-1H-pyrazol-4-yl}methyl)amino]phenyl}carbonyl)(methyl)amino]propanoic acid]
80%	Cc1c(C(Nc2ccc(C(=O)NCCC(=O)O)cc2)C(C)C)oc2ccc(F)cc12 (centres unmarked) [Example A193, 3-{[(4-{[1-(5-fluoro-3-methyl-1-benzofuran-2-yl)-2-methylpropyl]amino}phenyl)carbonyl]amino}propanoic acid]
71%	Cc1nn(-c2cccc(Cl)c2)cc1C(Nc1ccc(C(=O)N(C)CCC(=O)O)cc1)C1CCCCC1 (centres unmarked) [Example 71, 3-[{[4-({[1-(3-chlorophenyl)-3-methyl-1H-pyrazol-4-yl](cyclohexyl)methyl}amino)phenyl]carbonyl}(methyl)amino]-propanoic acid]
64%	CN(CCC(=O)O)C(=O)c1ccc(NC(c2csc3ccccc23)C2CCCCC2)cc1 (centres unmarked) [Example A2, 3-{[(4-{[1-benzothiophen-3-yl(cyclohexyl)methyl]amino}phenyl)carbonyl](methyl)amino}-propanoic acid]
76%	Cc1c(C(Nc2ccc(C(=O)N(C)CCC(=O)O)cc2)C2CCCCC2)oc2ccc(NS(=O)(=O)c3ccccc3)cc12 (centres unmarked) [Example A130, 3-[({4-[(cyclohexyl{3-methyl-5-[(phenylsulfonyl)amino]-1-benzofuran-2-yl}methyl)amino]phenyl}carbonyl)(methyl)amino]propanoic acid]
64%	Cc1c(C(Nc2ccc(C(=O)N(C)CCC(=O)O)cn2)C2CCCCC2)oc2ccc(F)cc12 (centres unmarked) [Example A52, 3-{[(6-{[cyclohexyl(5-fluoro-3-methyl-1-benzofuran-2-yl)methyl]amino}pyridin-3-yl)carbonyl](methyl)amino}propanoic acid]
82%	CCC(CC)C(Nc1ccc(C(=O)NCCC(=O)O)cc1)c1sc2ccccc2c1C (centres unmarked) [Example A134, 3-{[(4-{[2-ethyl-1-(3-methyl-1-benzothiophene-2-yl)butyl]amino}phenyl)carbonyl]amino}propanoic acid]
76%	Cc1c(C(CC(C)C)Nc2ccc(C(=O)N(C)CCC(=O)O)cc2)oc2ccc(Cl)cc12 (centres unmarked) [Example A101, 3-{[(4-{[1-(5-chloro-3-methyl-1-benzofuran-2-yl)-3-methylbutyl]amino}phenyl)carbonyl](methyl)amino}propanoic acid]
71%	COc1ccc2cc(C(Nc3ccc(C(=O)NCCC(=O)O)cc3)C3CCCCC3)oc2c1 (centres unmarked) [Example A35, 3-{[(4-{[cyclohexyl(6-methoxy-1-benzofuran-2-yl)methyl]amino}phenyl)carbonyl]amino}propanoic acid]
73%	COc1ccc(-n2cc(C(Nc3ccc(C(=O)N(C)CCC(=O)O)cc3)C3CCCCC3)c(C)n2)cc1 (centres unmarked) [Example 24, 3-[{[4-({cyclohexyl[1-(4-methoxyphenyl)-3-methyl-1H-pyrazol-4-yl]methyl}amino)phenyl]carbonyl}(methyl)amino]propanoic acid]
69%	CCc1nn(-c2cccc(OC)c2)cc1C(Nc1ccc(C(=O)N(C)CCC(=O)O)cc1)C1CCCCC1 (centres unmarked) [Example 78, 3-[{[4-({cyclohexyl[3-ethyl-1-(3-methoxyphenyl)-1H-pyrazol-4-yl]methyl}amino)phenyl]carbonyl}(methyl)amino]propanoic acid]

From US8436043B2 (Takeda Pharmaceutical Company Limited, priority 2008, dated 2013)
